Measurements published in patent US10323019B2, “Pyrazolylaminobenzimidazole derivatives as JAK inhibitors” (Eli Lilly and Company, priority 2016, dated 2019).
Like-named read-outs stand apart in the source and are kept apart here.

Tests used:
JAK1 [1] = target: JAK1 (Rattus norvegicus, UniProt G3V9W2); test: Rat PK/PD assay: rat whole blood ex vivo JAK1 activity (pSTAT3); type: in vivo; conditions: 30 mpk oral
Method: (§1) Male Wistar rats, 265-285 grams (Charles River) were used for oral gavage dosing. Dose the animals (Oral gavage) at 1.82 mL/kg (0.5 mL per 275 grams). Formulate the compounds in 1% HEC vehicle containing 0.25% Tween 80 and 0.05% antifoam with 1.1 molar equivalent of methanesulfonic acid to form an in situ salt. Formulate compounds once per week, and store at 4° C. At various time points, obtain rat whole blood via tail vain bleeding in Multivette 600 μl EDTA blood collection tubes (cat#151671100PK100, Sarstedt Inc) and use for ex vivo JAK1 and JAK2 assay. Aliquot 100 ul of blood from each rat into a 96-well round bottom plate. Stimulate whole blood by recombinant IL-6 ([…], and recombinant mouse GM-CSF (cat#415-ML, lot#, R&D) for 12 min at rt. After cytokine stimulation, add whole blood into Lyse/fix (cat#558049, lot#, BD) in minitube rack; mix well 5×. Incubate 10 min at rt. Spin minitube rack at 600 g for 4 min. Aspirate with 12-channel manifold. Transfer contents of minitube rack to 96 well round-bottom plates. Spin down the cells at 3000 rpm for 1 min and discard the supernatant. Mix the cells in the well with 100 ul ice-cold MeOH and incubated on ice for 30 min. Add 150 ul PBS+2% FCS into each well and spin down at 3000 rpm, 2 min. Wash cells with 2× of 250 ul PBS+2% FCS. For cell surface and intracellular staining, mix all antibodies and add into each well and incubate 1 hr at rt in dark. The antibodies used for staining are as following: pSTAT3, Alexa Fluor 647 (cat#4324s, lot, Cell Signaling); pSTAT5, Alexa Fluor 488 (cat#3939s, lot#, Cell Signaling), anti-rat CD4, V450 (cat#561579, lot#. BD); anti-rat CD11b, Percp eFluor710 (cat#12-0110-82, lot#, eBioscience) After staining cells with Abs, wash the plates twice with PBS+2% FCS and finally re-suspend in the same 150 ul of solution. Assess cell viability by Viability Dye 780 (cat#65-0865-14, lot#, eBioscience). Perform the cytometry assay using FORTESSA.

[2] = system: paw swelling in Lewis rats; test: Rat collagen-induced arthritis (CIA) model; type: in vivo
Method: Rat Collagen-Induced Arthritis (CIA) Model
This protocol uses Lewis rats (weight 150-175 grams) from Charles River. On day 0, anesthetize rats with Isoflurane. On day 1, immunize intradermally with collagen emulsion in two sites on the lower lumbar region, above the base of the tail. Dose volume is a minimum of 0.4 mL per injection site. On day 8, anesthetize rats with Isoflurane and immunize intradermally with collagen emulsion in two sites on the lower lumbar region, above the base of the tail. Enroll rats into treatment groups on day 12, based on inflammation (redness and/or swelling) in their hind paws. Randomize animals for Treatment Phase based on ankle measurement values and body weight using block randomization allocation tool. Record ankle swelling on days 1, 8, and 11 and then three times per week following enrollment up to and including the day of necropsy. Dose compounds orally once a day starting on day 12 (after randomization) up to day 25. The compounds of Examples 6 and 7 were evaluated in the protocol essentially as described above.

JAK1 [3] = target: T1, JAK1 (Homo sapiens (Human), UniProt P23458); test: JAK LanthaScreen Kinase Assay (TR-FRET), JAK1 in vitro enzyme assay; type: biochemical; conditions: 20.0 μM ATP
T1 sequence (P23458 whole entry): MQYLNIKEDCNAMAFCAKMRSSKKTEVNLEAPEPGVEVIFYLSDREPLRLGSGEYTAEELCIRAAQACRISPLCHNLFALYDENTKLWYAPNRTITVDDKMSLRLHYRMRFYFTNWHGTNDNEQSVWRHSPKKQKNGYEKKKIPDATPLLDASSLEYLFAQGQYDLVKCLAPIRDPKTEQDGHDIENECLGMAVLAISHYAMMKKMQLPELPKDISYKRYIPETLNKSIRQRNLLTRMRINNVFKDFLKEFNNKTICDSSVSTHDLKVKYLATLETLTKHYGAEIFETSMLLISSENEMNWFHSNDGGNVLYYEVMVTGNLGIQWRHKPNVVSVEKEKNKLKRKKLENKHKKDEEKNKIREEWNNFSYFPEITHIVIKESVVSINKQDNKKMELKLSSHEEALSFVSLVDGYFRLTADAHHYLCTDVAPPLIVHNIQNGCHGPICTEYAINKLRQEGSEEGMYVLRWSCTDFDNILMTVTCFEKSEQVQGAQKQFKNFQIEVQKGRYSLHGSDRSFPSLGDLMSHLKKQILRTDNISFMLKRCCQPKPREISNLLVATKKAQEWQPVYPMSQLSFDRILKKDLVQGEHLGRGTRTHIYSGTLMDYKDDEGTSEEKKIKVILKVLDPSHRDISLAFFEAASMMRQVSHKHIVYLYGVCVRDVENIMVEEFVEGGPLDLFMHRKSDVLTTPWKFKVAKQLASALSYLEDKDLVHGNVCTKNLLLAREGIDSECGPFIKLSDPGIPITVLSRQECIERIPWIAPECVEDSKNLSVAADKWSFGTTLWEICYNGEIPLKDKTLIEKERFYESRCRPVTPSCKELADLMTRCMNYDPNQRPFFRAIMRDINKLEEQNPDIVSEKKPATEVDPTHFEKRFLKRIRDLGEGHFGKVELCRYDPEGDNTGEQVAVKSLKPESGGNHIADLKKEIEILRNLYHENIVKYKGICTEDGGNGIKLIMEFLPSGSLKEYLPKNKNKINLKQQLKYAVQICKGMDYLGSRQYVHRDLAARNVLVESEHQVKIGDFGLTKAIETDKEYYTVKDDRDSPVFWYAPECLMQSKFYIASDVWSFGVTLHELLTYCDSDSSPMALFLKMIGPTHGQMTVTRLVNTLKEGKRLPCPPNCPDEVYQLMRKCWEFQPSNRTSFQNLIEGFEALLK
Method: (§2) The JAK LanthaScreen™ Kinase Assay (Invitrogen) is used to determine the ability of test compounds to inhibit JAK1, JAK2, and JAK3 kinase activity. These are TR-FRET assay formats that use long-lifetime terbium labeled antibody as the donor species and GFP-STAT1 as the acceptor species. Use the TR-FRET ratio to monitor JAK kinase activity where an increase in phosphorylation of the GFP-STAT1 results in an increase in the TR-FRET ratio. Perform the kinase reaction using a 12.5 μl reaction volume in shallow black 384-well Proxiplate®. Add reagents to obtain final reaction conditions of […], 1.76 mM Triton X-100, ATP (20.0 μM for JAK1 and JAK3 or 5 μM for JAK2) enzyme assays, 10.0 mM MgCl2, 1 mM EGTA and 0.01% Brij-35, […] GFP-STAT1, 14 nM JAK1 enzyme for JAK1, 1.0 nM for JAK2 or 2.5 nM for JAK3 enzyme assays, and 4% DMSO and serial dilutions of test compound (diluted 1:3 from 20,000 to 1 nM). Following ATP/GFP-STAT1 addition, centrifuge the assay plates for 1 minute at 1000 revolutions per minute (RPM). Allow the plates to incubate at RT for 60 minutes and then add 12.5 μl of a stopping buffer containing 20 mM EDTA, 2 nM Terbium-anti-phosphorylated Signal Transducers and Activators of Transcription [phosphorylation Tyrosine 701 amino acid] […] Use ACTIVITYBASE® 4.0 to fit the percent inhibition and ten-point compound concentration data to a four-parameter logistic equation.

JAK3 = JAK3 (Homo sapiens (Human), UniProt P52333); test: JAK LanthaScreen Kinase Assay (TR-FRET), JAK3 in vitro enzyme assay; type: biochemical; conditions: 20.0 μM ATP
Chain of JAK3 (P52333 whole entry): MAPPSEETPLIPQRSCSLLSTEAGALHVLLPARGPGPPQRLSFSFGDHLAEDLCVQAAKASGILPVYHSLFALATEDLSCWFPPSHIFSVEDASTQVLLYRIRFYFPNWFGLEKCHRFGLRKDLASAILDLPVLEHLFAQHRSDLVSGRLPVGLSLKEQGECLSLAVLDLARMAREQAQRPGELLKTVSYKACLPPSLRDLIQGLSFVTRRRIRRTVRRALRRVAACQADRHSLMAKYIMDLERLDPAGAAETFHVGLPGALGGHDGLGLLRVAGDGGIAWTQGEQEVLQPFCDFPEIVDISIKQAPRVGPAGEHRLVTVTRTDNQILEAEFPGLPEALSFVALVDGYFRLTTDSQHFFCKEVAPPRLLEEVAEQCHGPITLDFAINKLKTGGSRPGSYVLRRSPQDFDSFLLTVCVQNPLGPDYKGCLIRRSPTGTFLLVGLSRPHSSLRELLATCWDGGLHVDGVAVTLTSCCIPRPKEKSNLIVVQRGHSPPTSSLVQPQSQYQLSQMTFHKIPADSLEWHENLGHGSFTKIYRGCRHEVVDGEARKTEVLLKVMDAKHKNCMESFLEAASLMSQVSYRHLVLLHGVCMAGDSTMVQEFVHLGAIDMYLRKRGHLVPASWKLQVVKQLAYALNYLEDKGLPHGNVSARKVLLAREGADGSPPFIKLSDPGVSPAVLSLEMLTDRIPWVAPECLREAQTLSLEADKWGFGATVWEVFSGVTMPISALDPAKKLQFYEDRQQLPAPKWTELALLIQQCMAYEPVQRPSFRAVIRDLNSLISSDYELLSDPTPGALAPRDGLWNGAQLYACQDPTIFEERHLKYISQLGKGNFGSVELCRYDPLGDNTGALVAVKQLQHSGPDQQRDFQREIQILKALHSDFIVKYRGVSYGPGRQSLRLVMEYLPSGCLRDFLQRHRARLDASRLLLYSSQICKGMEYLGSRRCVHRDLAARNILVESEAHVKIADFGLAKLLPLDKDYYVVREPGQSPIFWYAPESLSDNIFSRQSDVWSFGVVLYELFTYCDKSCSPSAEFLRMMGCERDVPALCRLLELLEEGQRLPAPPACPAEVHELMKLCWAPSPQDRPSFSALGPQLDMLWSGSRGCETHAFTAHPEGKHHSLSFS
Method: as §2

JAK1 [4] = target: T1, JAK1; test: Human whole blood assay: pSTAT3 (JAK1) in lymphocytes, IL6 stimulated; type: cell-based; conditions: IL6, pSTAT3 in CD4+ lymphocytes
Source text: (§3) Human Whole Blood Assays: Determination of pSTAT3 (JAK1) and pSTAT5 (JAK2) in Lymphocytes and Monocytes
(§4) Human whole blood (HWB) assays were developed and validated to determine the JAK1 and JAK2 selectivity of test compounds.
(§5) Dilute the test compounds, 10 points, (1:3) in DMSO 100% and a step down in PBS+0.1% BSA. Use Tofacitinib as a reference compound in each plate, as well as a maximum signal (stimulated wells) and a minimum signal (no stimulated wells) in order to normalize data. Obtain a pool of HWB from 4 different healthy donors. Plate the blood in a 96 well plate using a Tecan Evo 96w and incubate with test compounds for 1 h at RT. After this time of incubation, stimulate HWB with both IL6 (206-IL, R&D System) and GM-CSF (PHC2015, Life Technologies) for 15 more minutes. Add a viability dye (65-0865, eBiosicience) (1:1000) using a Tecan Evo 96w (5×mix).
(§6) The final concentrations in the assay are the following: 100 (μM for compounds, 50 μM for Tofacitinib, 0.1 μg/mL IL6, 0.038 μg/mL GM-CSF and 1% DMSO. Lyse and fix HWB using a Lyse/fix buffer (558049, Becton Dickinson) by adding 900 μL of lysis buffer using Tecan Evo 96w (mix 10× high speed). Incubate HWB in bath at 37° C. for 10 minutes. Centrifuge HWB at 500 G, 8 min and discard supernatant. Add cold MeOH using a Tecan Exo 96w in order to permeabilize cells. Incubate blood cells on ice during 30 min. After this, wash cells 2× using Staining buffer (554656, Becton Dickinson), spin at 3000 rpm, 2 min. discard supernatant, and add the following antibodies: Anti-Human CD4 PE, 1:100 (12-0048, eBioscience), Anti-Human CD33 eFluor® 450, 1:50 (48-0337, eBioscience), Phospho-STAT5 (Tyr694) (C71E5) Rabbit mAb, 1:100 (Alexa Fluor® 488 Conjugate) (3939, Cell Signaling) and Phospho-STAT3 (Tyr705) (D3A7) XP™ Rabbit mAb 1:200, (Alexa Fluor® 647 Conjugate) (4324, Cell Signaling). Incubate the antibodies for 1 h in dark at RT, then wash cells 2× and read on Cytometer Macsquant (Miltenyi Biotec). Gate the data on CD4+ (lymphocytes) and CD4Low CD33Hi (monocytes), to measure the fluorescence intensity from cells expressing pSTAT3 and pSTAT5, respectively. Analyze the data using FlowJo v 10 and then normalize the median of fluorescence versus maximum and minimum signal to determine the IC50s. Use Graph Pad Prism 5™ to represent the dose response curves.

JAK2 [5] = target: JAK2 (Rattus norvegicus (Rat), UniProt Q62689); test: Rat PK/PD assay: rat whole blood ex vivo JAK2 activity (pSTAT5); type: in vivo; conditions: 30 mpk oral
Method: as §1

JAK2 [6] = target: T2, JAK2 (Homo sapiens (Human), UniProt O60674); test: Human whole blood assay: pSTAT5 (JAK2) in monocytes, GM-CSF stimulated; type: cell-based; conditions: pSTAT5 in CD4Low CD33Hi monocytes
T2 sequence (O60674 whole entry): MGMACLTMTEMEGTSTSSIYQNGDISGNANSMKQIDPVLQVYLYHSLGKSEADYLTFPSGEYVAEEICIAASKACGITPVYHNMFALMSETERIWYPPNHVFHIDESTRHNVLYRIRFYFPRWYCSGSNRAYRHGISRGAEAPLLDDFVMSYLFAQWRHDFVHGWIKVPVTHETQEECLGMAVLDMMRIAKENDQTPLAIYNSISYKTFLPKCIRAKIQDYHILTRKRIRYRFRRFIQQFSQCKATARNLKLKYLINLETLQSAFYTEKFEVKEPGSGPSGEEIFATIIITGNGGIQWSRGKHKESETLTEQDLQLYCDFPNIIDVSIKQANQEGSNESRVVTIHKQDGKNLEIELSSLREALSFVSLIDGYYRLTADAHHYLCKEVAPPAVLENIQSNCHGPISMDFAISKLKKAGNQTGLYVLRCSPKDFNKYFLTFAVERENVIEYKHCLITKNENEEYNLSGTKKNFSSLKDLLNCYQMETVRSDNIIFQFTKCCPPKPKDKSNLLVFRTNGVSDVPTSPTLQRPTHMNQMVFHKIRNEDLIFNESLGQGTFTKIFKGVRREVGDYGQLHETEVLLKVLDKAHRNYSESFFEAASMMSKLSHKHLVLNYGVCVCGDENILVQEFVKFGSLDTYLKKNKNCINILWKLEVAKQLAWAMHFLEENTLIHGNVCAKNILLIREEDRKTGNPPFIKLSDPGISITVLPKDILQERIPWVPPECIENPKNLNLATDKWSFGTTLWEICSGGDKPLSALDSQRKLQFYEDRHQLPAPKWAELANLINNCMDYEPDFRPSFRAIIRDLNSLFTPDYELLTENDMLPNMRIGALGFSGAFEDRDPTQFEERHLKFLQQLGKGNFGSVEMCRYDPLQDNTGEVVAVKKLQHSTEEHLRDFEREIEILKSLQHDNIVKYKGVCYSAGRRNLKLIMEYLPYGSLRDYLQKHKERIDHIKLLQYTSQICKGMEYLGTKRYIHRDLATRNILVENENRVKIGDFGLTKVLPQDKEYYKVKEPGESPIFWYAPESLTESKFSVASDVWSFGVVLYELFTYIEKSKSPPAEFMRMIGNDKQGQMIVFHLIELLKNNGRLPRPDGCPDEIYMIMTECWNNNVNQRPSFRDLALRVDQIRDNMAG
Source text: as §3, §4, §5, §6

JAK2 [7] = target: T2, JAK2; test: JAK LanthaScreen Kinase Assay (TR-FRET), JAK2 in vitro enzyme assay; type: biochemical; conditions: 5 μM ATP
Method: as §2

[8] = system: paw swelling and bone mineral density loss in Lewis rats; test: Rat adjuvant-induced arthritis (AIA) model; type: in vivo; conditions: naïve rat as 100% inhibition
Method: Rat Adjuvant-Induced Arthritis (AIA) Model
The effects of compounds on polyarthritis inflammation and ankle joint bone erosion can be evaluated in a rat adjuvant-induced arthritis (AIA) model. Use Male Lewis rats with a mean body weight of 185 g for the study. Induce arthritis by intra-dermal injection located at the base of the tail with 100 μL of adjuvant suspended immunization emulsion oil. Randomize animals based on the mean paw thickness and body weight on day 10 into study groups with 8 rats in each group. Prepare compounds in 1% HEC/0.25% P80/0.05% AF in purified water and dose daily via oral gavage starting from day 11 post immunization for 14 days. Quantitate paw thickness with the caliper measurement on both ankles. Assess group differences using a one-way ANOVA followed by Dunnett's post-test for multiple comparisons against vehicle controls. The compound of Example 10 are evaluated in the protocol essentially as described above.

Chain of JAK1 (Rattus norvegicus, UniProt G3V9W2) (G3V9W2 1-1153): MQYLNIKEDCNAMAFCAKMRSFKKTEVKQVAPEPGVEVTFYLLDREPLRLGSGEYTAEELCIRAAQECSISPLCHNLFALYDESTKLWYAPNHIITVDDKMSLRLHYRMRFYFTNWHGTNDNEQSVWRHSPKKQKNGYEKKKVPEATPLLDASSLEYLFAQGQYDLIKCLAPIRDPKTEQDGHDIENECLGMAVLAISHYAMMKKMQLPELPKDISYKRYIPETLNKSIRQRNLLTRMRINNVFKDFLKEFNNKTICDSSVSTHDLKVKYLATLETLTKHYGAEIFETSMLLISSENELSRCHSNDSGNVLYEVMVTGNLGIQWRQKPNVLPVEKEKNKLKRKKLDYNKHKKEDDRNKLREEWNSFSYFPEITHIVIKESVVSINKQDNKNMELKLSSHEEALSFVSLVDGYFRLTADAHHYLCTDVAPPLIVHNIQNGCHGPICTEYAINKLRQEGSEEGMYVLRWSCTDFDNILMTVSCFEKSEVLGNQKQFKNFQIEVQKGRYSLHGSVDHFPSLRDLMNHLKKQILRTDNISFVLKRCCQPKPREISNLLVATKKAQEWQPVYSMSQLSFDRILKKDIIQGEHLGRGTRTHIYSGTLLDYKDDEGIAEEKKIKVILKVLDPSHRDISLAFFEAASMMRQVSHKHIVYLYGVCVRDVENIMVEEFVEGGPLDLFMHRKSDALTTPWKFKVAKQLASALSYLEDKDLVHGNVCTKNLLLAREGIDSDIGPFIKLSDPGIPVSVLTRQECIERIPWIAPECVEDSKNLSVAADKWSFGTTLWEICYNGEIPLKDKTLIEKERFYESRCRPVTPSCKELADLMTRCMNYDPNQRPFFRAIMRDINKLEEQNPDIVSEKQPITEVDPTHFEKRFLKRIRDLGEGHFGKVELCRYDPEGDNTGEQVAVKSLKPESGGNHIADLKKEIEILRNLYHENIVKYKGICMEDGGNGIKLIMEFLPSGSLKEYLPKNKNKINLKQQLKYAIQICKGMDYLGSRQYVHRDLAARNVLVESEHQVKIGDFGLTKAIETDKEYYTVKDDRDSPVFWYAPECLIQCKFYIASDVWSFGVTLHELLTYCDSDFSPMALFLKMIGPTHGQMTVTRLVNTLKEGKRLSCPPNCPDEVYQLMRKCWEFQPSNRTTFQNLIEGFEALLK

SMILES	IC50 (JAK1 [3]) [nM]	IC50 (JAK3) [nM]	IC50 (JAK1 [4]) [µM]	IC50 (JAK2 [6]) [µM]	IC50 (JAK2 [7]) [nM]	further results
CCn1nc(Nc2cc(OC3CCC(NC[C@@H](O)C(F)(F)F)CC3)cc3c2ncn3C)cc1C (stereo in doubt) [Example 7]	5.43 ± 0.93	6160 ± 2020	4.17 ± 1.87			JAK1 inhibition 2 hr post dosing (JAK1 [1]; 2 hr post dosing): 70.7%; JAK1 inhibition 7 hr post dosing (JAK1 [1]; 7 hr post dosing): 61.0%; Rat paw swelling % inhibition at 3 mpk ([2]; 3 mpk oral once a day day 12 to 25, naïve rat as 100% inhibition): 0%; Rat paw swelling % inhibition at 10 mpk ([2]; 10 mpk oral once a day day 12 to 25, naïve rat as 100% inhibition): 69%; Rat paw swelling % inhibition at 30 mpk ([2]; 30 mpk oral once a day day 12 to 25, naïve rat as 100% inhibition): 73%
Cc1cc(Nc2cc(O[C@H]3CC[C@@H](NC[C@@H](O)C(F)(F)F)CC3)cc3c2ncn3C)nn1C[C@H](C)O [Example 4, (2R)-1,1,1-Trifluoro-3-[(cis-4-{[4-({1-[(2S)-2-hydroxypropyl]-5-methyl-1H-pyrazol-3-yl}amino)-1-methyl-1H-benzimidazol-6-yl]oxy}cyclohexyl)amino]propan-2-ol]						inhibition at 30 mg/kg (JAK2 [5]; 2 hr post dosing, read-out: JAK2 inhibition 2 hr post dosing): 22.9%; inhibition at 30 mg/kg (JAK2 [5]; 7 hr post dosing, read-out: JAK2 inhibition 7 hr post dosing): 20.1%; inhibition at 30 mg/kg (JAK1 [1]; 2 hr post dosing, read-out: JAK1 inhibition 2 hr post dosing): 72%; inhibition at 30 mg/kg (JAK1 [1]; 7 hr post dosing, read-out: JAK1 inhibition 7 hr post dosing): 22.3%
Cn1cnc2c(Nc3cc[nH]n3)cc(O[C@H]3CC[C@@](C)(NC[C@@H](O)C(F)(F)F)CC3)cc21 [Example 8, (2R)-1,1,1-Trifluoro-3-[(cis-1-methyl-4-{[1-methyl-4-(1H-pyrazol-3-ylamino)-1H-benzimidazol-6-yl]oxy}cyclohexyl)amino]propan-2-ol]	1.91 ± 0.75	1170 ± 470	3.13 ± 1.1	9.63 ± 2.52	239 ± 150	
Cc1cc(Nc2cc(O[C@H]3CC[C@@H](NC[C@@H](O)C(F)F)CC3)cc3c2ncn3C)nn1C [Example 9, (2R)-3-{[cis-4-({4-[(1,5-Dimethyl-1H-pyrazol-3-yl)amino]-1-methyl-1H-benzimidazol-6-yl}oxy)cyclohexyl]amino}-1,1-difluoropropan-2-ol]	5.35 ± 0.23	2140 ± 720	4.53 ± 2.09	16.9 ± 4.5	767 ± 39	
Cn1cnc2c(Nc3ccn(-c4ccccn4)n3)cc(O[C@H]3CC[C@@H](NC[C@@H](O)C(F)(F)F)CC3)cc21 [Example 10, (2R)-1,1,1-Trifluoro-3-({cis-4-[(1-methyl-4-{[1-(pyridin-2-yl)-1H-pyrazol-3-yl]amino}-1H-benzimidazol-6-yl)oxy]cyclohexyl}amino)propan-2-ol]	1.49 ± 0.49	660 ± 180	1.29 ± 0.64	6.86 ± 2.13	220 ± 120	% inhibition of BMD loss in paw ([8]; 3 mpk oral daily for 14 days): 39%; % inhibition of paw swelling ([8]; 3 mpk oral daily for 14 days): 26%; % inhibition of BMD loss in paw ([8]; 10 mpk oral daily for 14 days): 81%; % inhibition of paw swelling ([8]; 10 mpk oral daily for 14 days): 63%; % inhibition of BMD loss in paw ([8]; 30 mpk oral daily for 14 days): 84%; % inhibition of paw swelling ([8]; 30 mpk oral daily for 14 days): 73%
